This note sets out measurements from patent US20080051445A1, “2-Thioxothiazolidin-4-one compounds and compositions as antimicrobial and antimalarial agents targeting enoyl-ACP reductase of type II fatty acid synthesis pathway and other cell growth pathways” (NATIONAL INSTITUTE OF IMMUNOLOGY., priority 2006, published 2008).

pIC50: −log10 of the molar value. ≈ marks a conversion by molar mass, not a printed value.

In test [1] the test system is Chloroquine-sensitive Plasmodium falciparum FCK2 strain. The test can be described thus: In vitro whole-cell assay against Plasmodium falciparum in red blood cell cultures. It is filed as cell-based. The protocol:
Compound NAV 117 was assayed for in vitro growth inhibition of Plasmodium falciparum by incubating the cultures with different concentrations of the inhibitors in Me2SO (final concentration, 0.05%). The cultures were checked for growth inhibition by microscopic examination by assessing the parasitemia at every 48 h (●) and 96 h (∘). The average of three data sets has been plotted, and the error bars are shown.
In vitro whole-cell assay against Plasmodium falciparum. Antimalarial activity of NAV-117 was checked towards the Chloroquine-sensitive Plasmodium falciparum FCK2 strain in red blood cell cultures.

Test [2] concerns the target PfENR (Plasmodium falciparum, UniProt Q9BH77). The test can be described thus: Inhibition of PfENR (P. falciparum enoyl-ACP reductase, PfFabI), spectrophotometric NADH/crotonoyl-CoA assay. Format: biochemical. The protocol: PfENR activity was determined in the presence of various concentrations of the inhibitor (25 nM to 750 nM). The percent inhibition was calculated from the residual PfENR activity and was plotted against log compound NAV-117 used. The sigmoidal curve indicates the best fit for the data and IC50 value was calculated from the graph.
PfENR was assayed at two fixed concentrations -100 μM [·] and 200 μM [<] of crotonoyl CoA in presence of 250 nM of compound NAV-117 and 100 μM of NADH. Ki was calculated from the X-intercept. Plot indicates competitive kinetics with respect to crotonoyl CoA.
200 nM PfENR was assayed in presence of 200 μM crotnoyl CoA, 250 nM compound NAV-117 and 50 μM [·] and 100 μM [<] of NADH. Ki of inhibitor was calculated from the. X-intercept. Plot indicates noncompetitive kinetics with respect to NADH.
Spectrophotometric assay of enzyme activity The activity of the Enoyl-ACP reductase was assayed by following rate of the disappearance of NADH using crotonyl-CoA as a substrate. The assay mixture (100 μl) comprised of 100 μM crotonyl-CoA 100 μM NADH and 1% ethanol in […] buffer, pH 7.5. The kinetic parameters were obtained form the double reciprocal plots.
Enzyme inhibition studies The inhibition studies were carried out by preincubating enoyl ACP reductase with the respective compound and various concentrations of the coenzymes at 4° C. for 5 hours. This was warmed to 25° C. and assay was started by the addition of the crotonyl-CoA. The inhibition constant Ki was determined by using the following equation: v=v0/(1+[I]/Ki)
Kinetics of inhibition of PfENR. We deduced the kinetics of inhibition for NAV-117 with respect to crotonoyl CoA as well as NADH. The reaction velocity was measured at a fixed concentration of substrate varying the inhibitor concentration. A graph of the reciprocal of velocity against inhibitor concentration was plotted. […] The IC50 value was calculated by ploting the residual PfENR activity against log of inhibitor concentration and fitting the data points into a sigmoidal curve (FIG. 3). […]

Sequence of PfENR (Q9BH77 entry or part of it): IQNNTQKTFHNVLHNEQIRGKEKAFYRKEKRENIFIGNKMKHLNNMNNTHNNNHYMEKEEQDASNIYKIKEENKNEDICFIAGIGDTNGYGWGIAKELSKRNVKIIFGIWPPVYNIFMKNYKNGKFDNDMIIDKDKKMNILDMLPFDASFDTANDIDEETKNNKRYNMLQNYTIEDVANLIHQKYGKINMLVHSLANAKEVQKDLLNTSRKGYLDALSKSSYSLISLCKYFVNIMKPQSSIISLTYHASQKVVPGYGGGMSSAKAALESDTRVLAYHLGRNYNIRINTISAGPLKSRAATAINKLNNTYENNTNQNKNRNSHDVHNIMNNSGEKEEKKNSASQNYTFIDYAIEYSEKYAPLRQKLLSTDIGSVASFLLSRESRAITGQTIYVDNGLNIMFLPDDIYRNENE

A word on the pIC50: it is the IC50 on a negative log10 scale, so that one unit is a factor of ten. On to `O=C1/C(=C/c2ccc(O)c(O)c2)SC(=S)N1c1ccccc1` [NAV-117, 5-(3,4-Dihydroxy-benzylidene)-3-phenyl-2-thioxo-thiazolidin-4-one], for which the pIC50 in test [1] (Erythrocyte, after 96 h, non-linear regression (FIG. 6), read-out: IC50 value for growth inhibition of the parasite) is roughly 6.12. The MIC in test [1] (read-out: MIC (minimum inhibitory concentration)) stood at 2.5 µM (≈ 0.824 µg/mL). In addition, the “inhibition kinetics with respect to crotonoyl CoA (Dixon plot)” value in test [2] (100 μM and 200 μM crotonoyl CoA, 100 μM NADH (FIG. 4)) is on record as “competitive”. Moreover, the “inhibition kinetics with respect to NADH (Dixon plot)” value in test [2] (200 μM crotonoyl CoA, 50 μM and 100 μM NADH (FIG. 5)) is on record as “noncompetitive”. Also, the IC50 in test [2] (inhibitor 25 nM to 750 nM, sigmoidal fit (FIG. 3), read-out: IC50 value (residual PfENR activity against log of inhibitor concentration) (converted)) was 242 nM.
